Where “and” joins values, the source holds several entries; their conditions need not be identical. Equal values may be shown once.
Columns and labels:
[1] = test system: human embryonic stem cell line H9; test: Cells from […] differentiated on MEFs: role of Wnt-3a (real-time PCR, FACS); format: cell-based
Protocol: Cells from the human embryonic stem cell line H9 cultured on […]™ for at least five passages were seeded onto MEF feeders in ES media.
At day 3 and 5, the cultures were analyzed by real time PCR for SOX-17, SOX-7, Alpha-fetal protein (AFP), CXCR4, Brychyury (Bry), gooscecoid (GSC), HNF-3 beta, GATA4, hTERT and Oct4. AFP and SOX-7 are regarded as visceral endoderm markers while GATA4, HNF-3beta and SOX-17 represent definite endoderm markers and GSC, Bry, and CXCR4 represent markers of primitive streak. hTERT and Oct-4 are markers for self renewal and pluripotency respectively. FACS analysis was also performed at day 3 and 5.

[2] = test system: human embryonic stem cell line H9; test: Cytokine array (RayBiotech) of cell lysates and conditioned media, Activin A +/- Wnt3a (Table VII); format: cell-based; set-up: Angiogenin / BDNF / BMP-4 / BMP-6 / CK beta 8-1 / Eotaxin-3 / Flt-3 Ligand / Fractalkine / GCP-2 / GDNF / GM-CSF / I-309 / IFN-gamma / IGFBP-1 / IGFBP-2 / IGFBP-4 / IL-10 / IL-13 / IL-15 / IL-1alpha / IL-1beta / IL-1ra / IL-3 / IL-5 / Leptin / MCP-1 / MIP-1-delta / NT-3 / RANTES / SCF / TGF-beta 1 / TNF-beta / Acrp30 / AgRP / AxI / bFGF: unit not given here; settings: H9 day 5, samples 1,2
Protocol: At passage 54, cells were differentiated in the presence of 100 ng/mlActivinA+/−10 ng/mlWnt3a for 2 days in 0.5% FBS DMEM/F12. […]
Cell lysates were prepared from cells of each treatment group, with a mammalian cell lysis kit (Sigma-Aldrich,MO). Conditioned media from each treatment group was collected and concentrated. Cytokine array analysis was completed using Cytokine Array panels provided by RayBiotech, GA (http://www.raybiotech.com/). […] For each panel, positive and negative controls are also included.

[3] = test system: human embryonic stem cell line H9; settings: activin A or retinoic acid alone
Protocol: Cultures were harvested and samples of mRNA were collected for analysis.
Cells seeded on 0.1% Matrigel (BD) coated dishes were fixed with 4% paraformaldheyde for 20 min at room temperature. Fixed cells were blocked for 1 h at room temperature with PBS/0.1%BSA/10% normal chick serum /0.5% Triton X-100 and then incubated overnight with primary antibodies in PBS/0.1%BSA/10% normal chick serum at 4° C. After three washes in PBS/0.1% BSA, fluorescent secondary antibodies at a 1:100 dilution in PBS were incubated with cells for 1 h at room temperature to allow binding. Control samples included reactions where the primary antibody was omitted or where the primary antibody was replaced with corresponding matched negative control immunoglobulins at the same concentration as the primary antibodies. […]
Real-time PCR amplification and quantitative analysis: Unless otherwise stated, all reagents were purchased from Applied Biosystems. […] For each primer/probe set, a Ct value was determined as the cycle number at which the fluorescence intensity reached a specific value in the middle of the exponential region of amplification. Relative gene expression levels were calculated using the comparative Ct method. […] The normalized amount of target was calculated as 2-ΔCt, assuming amplification to be 100% efficiency. […]

**Q.** What does the source list for “Activin A: activin A (a member of the TGFβ superfamily), R&D Systems; 'w/o wnt' in Table VII = 100 ng/ml Activin A without Wnt3a”?
**A.** CXCR4 positive cells (FACS) ([1]; day 3, high concentration of Activin A): 32-42%; cells expressing CXCR4 (FACS) ([1]; day 5, high concentration of activin A): 28-32%; AFP expression ([1]; lower concentration of Activin A, regardless of Wnt3a): very high; Acrp30 ([2]; Cell conditioned media): 1,797.52 and 1,319.88; AgRP ([2]; Cell conditioned media): 378.17 and 195.90; Amphiregulin ([2]; Cell conditioned media): 250.52 and 151.01; Angiogenin ([2]; Cell conditioned media): 13,726.35 and 11,749.55; Angiopoietin-2 ([2]; Cell conditioned media): 655.82 and 632.60; AxI ([2]; Cell conditioned media): 401.31 and 324.05; BDNF ([2]; Cell conditioned media): 689.22 and 563.39; BMP-4 ([2]; Cell conditioned media): 583.40 and 541.83; BMP-6 ([2]; Cell conditioned media): 354.91 and 355.28; CK beta 8-1 ([2]; Cell conditioned media): 17.79 and 25.31; CNTF ([2]; Cell conditioned media): 282.81 and 211.86; EGF ([2]; Cell conditioned media): 1,681.85 and 1,406.12; Eotaxin ([2]; Cell conditioned media): 207.89 and 199.67; Eotaxin-2 ([2]; Cell conditioned media): 890.56 and 744.31; Eotaxin-3 ([2]; Cell conditioned media): 975.77 and 665.56; FGF-7 ([2]; Cell conditioned media): 449.49 and 352.47; Flt-3 Ligand ([2]; Cell conditioned media): 315.58 and 277.47; Fractalkine ([2]; Cell conditioned media): 120.80 and 145.30; GCP-2 ([2]; Cell conditioned media): 203.21 and 166.86; GDNF ([2]; Cell conditioned media): 176.99 and 194.98; GM-CSF ([2]; Cell conditioned media): 777.25 and 722.75; IFN-gamma ([2]; Cell conditioned media): 283.74 and 559.64; IGF-I ([2]; Cell conditioned media): 88.96 and 148.11; IGFBP-1 ([2]; Cell conditioned media): 33.71 and 24.37; IGFBP-2 ([2]; Cell conditioned media): 27,656.85 and 28,473.95; IGFBP-4 ([2]; Cell conditioned media): 10,091.09 and 6,029.45; IL-1alpha ([2]; Cell conditioned media): 10,155.70 and 5,842.90; IL-1beta ([2]; Cell conditioned media): 117.99 and 75.93; IL-1ra ([2]; Cell conditioned media): 142.34 and 93.74; IL-2 ([2]; Cell conditioned media): 188.22 and 363.72; IL-3 ([2]; Cell conditioned media): 4,598.86 and 5,260.77; IL-4 ([2]; Cell conditioned media): 357.72 and 239.04; IL-6 ([2]; Cell conditioned media): 7,377.28 and 9,527.88; IL-7 ([2]; Cell conditioned media): 456.98 and 430.27; IL-10 ([2]; Cell conditioned media): 722.93 and 564.32; IL-16 ([2]; Cell conditioned media): 259.39 and 214.67; LIGHT ([2]; Cell conditioned media): 619.92 and 453.71; Leptin ([2]; Cell conditioned media): 2,999.42 and 2,016.38; M-CSF ([2]; Cell conditioned media): 529.09 and 269.04; MCP-1 ([2]; Cell conditioned media): 572.17 and 500.58; MCP-4 ([2]; Cell conditioned media): 123.61 and 61.87; MIG ([2]; Cell conditioned media): 272.50 and 486.52; NAP-2 ([2]; Cell conditioned media): 97.39 and 110.61; NT-3 ([2]; Cell conditioned media): 97.39 and 171.55; PDGF-BB ([2]; Cell conditioned media): 4,729.96 and 8,521.09; RANTES ([2]; Cell conditioned media): 393.31 and 347.78; SCF ([2]; Cell conditioned media): 691.09 and 487.46; TGF-beta 1 ([2]; Cell conditioned media): 752.90 and 740.56; TGF-beta 3 ([2]; Cell conditioned media): 111.44 and 115.30; TNF-beta ([2]; Cell conditioned media): 675.17 and 671.19; bFGF ([2]; Cell conditioned media): 7,948.03 and 4,993.83; Amphiregulin ([2]; Cell lysate): 17.50 and 15.44; AxI ([2]; Cell lysate): 637.50 and 795.83; BDNF ([2]; Cell lysate): 167.50 and 167.82; BMP-4 ([2]; Cell lysate): 247.00 and 273.70; CK beta 8-1 ([2]; Cell lysate): 1.00 and 1.13; Eotaxin-2 ([2]; Cell lysate): 262.00 and 336.77; Eotaxin-3 ([2]; Cell lysate): 184.50 and 284.96; FGF-6 ([2]; Cell lysate): 629.00 and 379.57; GM-CSF ([2]; Cell lysate): 433.00 and 636.37; I-309 ([2]; Cell lysate): 152.50 and 246.10; IFN-gamma ([2]; Cell lysate): 349.00 and 441.52; IGFBP-2 ([2]; Cell lysate): 3,785.50 and 5,554.45; IGFBP-4 ([2]; Cell lysate): 5,553.00 and 6,043.27; IL-1alpha ([2]; Cell lysate): 1,236.00 and 1,216.99; IL-1beta ([2]; Cell lysate): 1.00 and 1.13; IL-1ra ([2]; Cell lysate): 33.00 and 25.91; IL-5 ([2]; Cell lysate): 400.50 and 555.84; IL-6 ([2]; Cell lysate): 828.50 and 516.98; IL-7 ([2]; Cell lysate): 190.00 and 313.12; IL-13 ([2]; Cell lysate): 428.50 and 555.84; IL-15 ([2]; Cell lysate): 599.50 and 808.13; Leptin ([2]; Cell lysate): 900.50 and 617.79; MCP-1 ([2]; Cell lysate): 242.50 and 282.71; MIG ([2]; Cell lysate): 291.00 and 226.39; MIP-1-delta ([2]; Cell lysate): 1.50 and 1.13; NT-3 ([2]; Cell lysate): 1.00 and 1.13; SCF ([2]; Cell lysate): 74.50 and 148.67; TGF-beta 1 ([2]; Cell lysate): 362.00 and 230.33; TNF-alpha ([2]; Cell lysate): 431.00 and 579.49; TNF-beta ([2]; Cell lysate): 241.00 and 342.40; bFGF ([2]; Cell lysate): 59,820.50 and 54,057.29; expression of Pdx1 [3]: did not induce

— patent publication US9096832B2, “Differentiation of human embryonic stem cells” (LifeScan, Inc., priority 2007, dated 2015)
